# Numbered stars: 1 amine (or outer) side, 2 acyl side, 3 side chain; on linkers, the order of the positions; unused ones are H or OH. Bridge positions count the residues as written; N and C are the ends. Square brackets hold non-standard residues; d marks the D form. Peptide text beside a SMILES is read from it. * marks the point of attachment. 2Thenoyl(5-Cl) = O=C(c1ccc(Cl)s1)*; Cysteamide = C(CS[*:3])N[*:1]; Orn = NCCC[CH](N)C(=O)O; Dap = NC[CH](N)C(=O)O; Mpa = O=C(O)CCS
# Target: T1, thrombin (Homo sapiens, UniProt P00734)
# T1 construct: consists of two polypeptide chains of 36 (light chain) and 259 amino acid
# Assay: Thrombin inhibition screen of crude macrocycle reactions (residual thrombin activity, fluorogenic substrate Z-Gly-Gly-Arg-AMC)
# Assay type: biochemical
# Details: 10 µM macrocycle concentration, macrocycles containing acid 14, crude reaction; for % thrombin activity, Repeat screen: replicate reaction and screen
# In short: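 Residual activity was measured as the AMC release rate after adding 50 μM Z-Gly-Gly-Arg-AMC. This followed a 10-min room-temperature preincubation of 2 nM thrombin with 10 μM single macrocycles in pH 7.4 Tris buffer (0.6% DMSO). Percent inhibition was taken against the mean slope of DMSO controls.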
"% thrombin activity, Original screen [%]","% thrombin activity, Repeat screen [%]","% thrombin activity, Original screen (listed as X D2 B5 y) [%]","% thrombin activity, Repeat screen (listed as X D2 B5 y) [%]","% thrombin activity, Original screen (listed as X D3 B1 V) [%]","% thrombin activity, Repeat screen (listed as X D3 B1 V) [%]",SMILES
96.4,103.7,,,,,C[C@H]1NC(=O)[C@@H]2CCCN2C(=O)[C@H](CCCCNC(=O)c2ccc(Cl)s2)NC(=O)CCSSCCNC1=O [X D1 B1 a] ([Mpa]K(2Thenoyl(5-Cl))P[dA]-Cysteamide; disulfide 1-C)
99.9,100.1,,,,,O=C1CCSSCCNC(=O)[C@@H](Cc2ccc(O)cc2)NC(=O)[C@H]2CCCN(C2)C(=O)[C@H](CCCCNC(=O)c2ccc(Cl)s2)N1 [X D1 B4 y]
99.6,102.4,,,,,O=C1CCSSCCNC(=O)[C@H]2CCCN(C2)C(=O)[C@H](Cc2ccccc2)NC(=O)[C@H](CCCCNC(=O)c2ccc(Cl)s2)N1 [X D1 F B4]
102.2,105.2,,,,,NC(=O)CCC1NC(=O)C(CCCCNC(=O)c2ccc(Cl)s2)NC(=O)CCSSCCNC(=O)C2CCCN2C1=O (stereo not shown) [X D1 Q B1] ([Mpa]K(2Thenoyl(5-Cl))QP-Cysteamide; disulfide 1-C; configuration not given here)
78.2,66.2,82.3,75.1,,,O=C1CCSSCCNC(=O)[C@H](Cc2ccc(O)cc2)NC(=O)c2cccc(c2)CNC(=O)[C@H](CCCNC(=O)c2ccc(Cl)s2)N1 [X D2 B5 Y]
98.3,94.7,,,,,CC(C)C[C@@H]1NC(=O)[C@H](CCCNC(=O)c2ccc(Cl)s2)NC(=O)CCSSCCNC(=O)[C@H]2CCCN(C2)C1=O [X D2 L B4]
96.4,96.3,,,,,O=C1CCSSCCNC(=O)C2CCCN2C(=O)C(Cc2ccc(O)cc2)NC(=O)C(CCCNC(=O)c2ccc(Cl)s2)N1 (stereo not shown) [X D2 Y B1] ([Mpa][Orn](2Thenoyl(5-Cl))YP-Cysteamide; disulfide 1-C; configuration not given here)
66.8,62.9,,,,,O=C1CCSSCCNC(=O)[C@H](Cc2ccccc2)NC(=O)[C@H]2CCCN(C2)C(=O)[C@H](CNC(=O)c2ccc(Cl)s2)N1 [X D3 B4 F]
94.4,90.2,,,,,NC(=O)CCC1NC(=O)C2CCCN(C2)C(=O)C(CNC(=O)c2ccc(Cl)s2)NC(=O)CCSSCCNC1=O (stereo not shown) [X D3 B4 Q]
70.6,70.5,,,,,O=C1CCSSCCNC(=O)[C@H](Cc2ccc(O)cc2)NC(=O)C2(CC2)CNC(=O)[C@H](CNC(=O)c2ccc(Cl)s2)N1 [X D3 B6 Y]

# More lines, now with the values behind:
SMILES,"% thrombin activity, Original screen [%]","% thrombin activity, Repeat screen [%]","% thrombin activity, Original screen (listed as X D2 B5 y) [%]","% thrombin activity, Repeat screen (listed as X D2 B5 y) [%]","% thrombin activity, Original screen (listed as X D3 B1 V) [%]","% thrombin activity, Repeat screen (listed as X D3 B1 V) [%]"
O=C1CCSSCCNC(=O)[C@H](CNC(=O)c2ccc(Cl)s2)NC(=O)[C@@H](Cc2ccccc2)NC(=O)C2(CC2)CN1 [X B6 f D3],49.0,42.0,,,,
O=C1CCSSCCNC(=O)[C@@H](CNC(=O)c2ccc(Cl)s2)NC(=O)[C@@H](Cc2c[nH]c3ccccc23)NC(=O)C2(CC2)CN1 [X B6 w D4],102.8,106.2,,,,
O=C1CCSSCCNC(=O)C(CO)NC(=O)c2ccc(cc2)CNC(=O)C(CCCCNC(=O)c2ccc(Cl)s2)N1 (stereo not shown) [X D1 B3 S],99.2,103.2,,,,
O=C1CCSSCCNC(=O)C2(CC2)CNC(=O)[C@H](Cc2c[nH]cn2)NC(=O)[C@H](CCCCNC(=O)c2ccc(Cl)s2)N1 [X D1 H B6],105.8,107.1,,,,
CCC(C)C1NC(=O)C(CCCCNC(=O)c2ccc(Cl)s2)NC(=O)CCSSCCNC(=O)C2(CC2)CNC1=O (stereo not shown) [X D1 I B6],91.0,93.6,,,,
O=C1CCSSCCNC(=O)C2(CC2)CNC(=O)[C@H](CO)NC(=O)[C@H](CCCCNC(=O)c2ccc(Cl)s2)N1 [X D1 S B6],97.6,98.2,,,,
CC[C@H](C)[C@@H]1NC(=O)CCNC(=O)[C@H](CCCNC(=O)c2ccc(Cl)s2)NC(=O)CCSSCCNC1=O [X D2 B2 I],101.0,92.2,,,,
O=C1CCSSCCNC(=O)[C@H](Cc2cnc[nH]2)NC(=O)c2cccc(c2)CNC(=O)[C@H](CCCNC(=O)c2ccc(Cl)s2)N1 [X D2 B5 H],93.0,94.7,,,,
O=C1CCSSCCNC(=O)c2cccc(c2)CNC(=O)[C@H](Cc2ccccc2)NC(=O)[C@H](CCCNC(=O)c2ccc(Cl)s2)N1 [X D2 F B5],95.3,93.4,,,,
CCC(C)C1NC(=O)C(CCCNC(=O)c2ccc(Cl)s2)NC(=O)CCSSCCNC(=O)C2CCCN2C1=O (stereo not shown) [X D2 I B1] ([Mpa][Orn](2Thenoyl(5-Cl))IP-Cysteamide; disulfide 1-C; configuration not given here),96.9,90.4,,,,
CC[C@H](C)[C@@H]1NC(=O)[C@H](CCCNC(=O)c2ccc(Cl)s2)NC(=O)CCSSCCNC(=O)CCNC1=O [X D2 I B2],94.1,96.8,,,,
O=C1CCNC(=O)[C@H](CO)NC(=O)[C@H](CCCNC(=O)c2ccc(Cl)s2)NC(=O)CCSSCCN1 [X D2 S B2],105.4,107.4,,,,
C[C@H]1NC(=O)[C@H](CCCNC(=O)c2ccc(Cl)s2)NC(=O)CCSSCCNC(=O)CCNC1=O [X D2 a B2],108.5,109.5,,,,
CC(C)C1NC(=O)C2CCCN2C(=O)C(CNC(=O)c2ccc(Cl)s2)NC(=O)CCSSCCNC1=O (stereo not shown) [X D3 B1 v] ([Mpa][Dap](2Thenoyl(5-Cl))PV-Cysteamide; disulfide 1-C; configuration not given here),92.1,95.4,,,98.0,99.7
O=C1CCSSCCNC(=O)[C@H](Cc2ccccc2)NC(=O)CCNC(=O)[C@H](CNC(=O)c2ccc(Cl)s2)N1 [X D3 B2 F],56.1,56.2,,,,
O=C1CCSSCCNC(=O)C(Cc2c[nH]cn2)NC(=O)CCNC(=O)C(CNC(=O)c2ccc(Cl)s2)N1 (stereo not shown) [X D3 B2 H],78.9,71.1,,,,
NC(=O)CCC1NC(=O)CCNC(=O)C(CNC(=O)c2ccc(Cl)s2)NC(=O)CCSSCCNC1=O (stereo not shown) [X D3 B2 Q],91.4,92.1,,,,
O=C1CCSSCCNC(=O)[C@H](Cc2c[nH]c3ccccc23)NC(=O)c2ccc(cc2)CNC(=O)[C@H](CNC(=O)c2ccc(Cl)s2)N1 [X D3 B3 W],68.7,73.3,,,,
O=C1CCSSCCNC(=O)[C@@H](Cc2ccccc2)NC(=O)c2ccc(cc2)CNC(=O)[C@H](CNC(=O)c2ccc(Cl)s2)N1 [X D3 B3 f],77.4,84.4,,,,
CC[C@H](C)[C@@H]1NC(=O)[C@H](CNC(=O)c2ccc(Cl)s2)NC(=O)CCSSCCNC(=O)c2ccc(cc2)CNC1=O [X D3 I B3],87.6,88.8,,,,
